We go through 18 compounds from patent US20070099986A1, “Preventives/remedies for urinary disturbance” (priority 2005, published 2007).

The target in series [1] is T1, human adrenaline α1A receptor (Homo sapiens, UniProt P35348).
T1 construct: expressed in transfected cells
T1 sequence (P35348 1-466): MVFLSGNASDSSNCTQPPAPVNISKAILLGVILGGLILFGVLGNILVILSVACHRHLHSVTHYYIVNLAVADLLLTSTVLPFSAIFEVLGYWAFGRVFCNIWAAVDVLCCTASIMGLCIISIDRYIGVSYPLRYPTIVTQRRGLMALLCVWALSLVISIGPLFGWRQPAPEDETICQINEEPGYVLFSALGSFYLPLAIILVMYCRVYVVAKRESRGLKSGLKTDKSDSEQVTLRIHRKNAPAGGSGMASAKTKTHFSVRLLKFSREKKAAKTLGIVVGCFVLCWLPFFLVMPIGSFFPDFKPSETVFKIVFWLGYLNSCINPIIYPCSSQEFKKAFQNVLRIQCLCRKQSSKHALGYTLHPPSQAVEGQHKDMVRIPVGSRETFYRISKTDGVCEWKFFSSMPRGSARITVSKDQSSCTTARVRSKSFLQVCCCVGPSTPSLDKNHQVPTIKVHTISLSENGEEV
Kind of series: α1A receptor binding inhibitory activity, [3H]-Prazosin binding to CHO-K1 membrane fraction. The conditions noted are these: inhibition of [3H]-Prazosin (2.5 nM) binding to membrane fraction of CHO-K1 cells expressing human α1A receptor. The procedure: b) Measurement of α1 A Receptor Binding Inhibitory Activity
The genetic engineering procedures as described below were based on the methods described in the textbook (Maniatis, et al., Molecular Cloning, Cold Spring Harbor Laboratory, 1989) or the methods described in the protocols attached to the reagents.
(i) Preparation of Expression Plasmid of Human Adrenaline α1 A Receptor
An adrenaline α1 A receptor gene was cloned from human liver cDNA by means of a PCR method. PCR reaction was performed in a Gene Amp PCR System 9700 (Applied Biosystems) with 200 ng of a human liver cDNA library (Takara Shuzo Co., Ltd.) as a template, by adding 50 pmol of each of the primer sets shown below which were prepared with referring to the base sequence of the adrenaline α1 A receptor gene reported by Hirasawa A. et al. (Biochem. Biophys. Res. Commun., 195, 902-909 (1993)): 5′-[…]-3′ [SEQ ID NO: 1], and 5′-[…]-3′ [SEQ ID NO: 2], and using a TaKaRa Pyrobest DNA Polymerase (Takara Shuzo Co., Ltd.) (reaction condition: 45 cycles of 94° C. for 15 seconds and 68° C. for 3 minutes and 30 seconds).
Thus obtained PCR fragments were digested with a restriction enzyme Eco RI (Takara Shuzo Co., Ltd.) and Sal I (Takara Shuzo Co., Ltd.), and then subjected to electrophoresis on agarose gel to recover DNA fragments. […]

Series [2] addresses T2, acetylcholinesterase from human erythrocyte origin (Homo sapiens, UniProt P22303).
T2 construct: Acetylcholinesterase from human erythrocyte origin (Sigma Chemical Co.); purchased Sigma Chemical Co; host or cells: human erythrocytes (tissue-derived enzyme)
Kind of series: Acetylcholinesterase-inhibitory action, acetylthiocholine method (Ellman method). The conditions noted are these: repeated at least 3 times, read-out: AChE: IC50. The class given is biochemical. As for the experimental part:
a) Measurement of Acetylcholinesterase-Inhibitory Action
Acetylcholinesterase-inhibitory action of the Example Compounds was measured using acetylcholinesterase from human erythrocyte origin according to the acetylthiocholine method (Ellman method).
Acetylcholinesterase from human erythrocyte origin (Sigma Chemical Co.) was dissolved in distilled water at a concentration of 0.2 IU/mL to give an enzyme authentic sample. To a 96-well microplate 20 μL of drug solution, 30 μL of 80 mM Tris-HCl (pH 7.4), 50 μL of enzyme authentic sample and 50 μL of 5 mM 5,5-dithio-bis(2-nitrobenzoic acid) (Sigma Chemical Co.) were added, and the plate was shaken for 10 seconds. Then, 50 μL of acetylthiocholine iodide (Sigma Chemical Co.) was added, and the plate was again shaken. Immediately after shaking, absorbance at 414 nm was measured at intervals of 30 seconds for 10 minutes.
The experiment was repeated at least 3 times for each compound to obtain 50% inhibitory concentration (IC50). Moreover, in the same manner as mentioned above, acetylcholinesterase-inhibiting activity of distigmine was measured.

SMILES strings stand for the structures. pIC50: −log10 of the molar value. Where a name gives a salt, the structure may show the parent alone.

T2 sequence (P22303 32-617 isoform P22303-2 limits assumed): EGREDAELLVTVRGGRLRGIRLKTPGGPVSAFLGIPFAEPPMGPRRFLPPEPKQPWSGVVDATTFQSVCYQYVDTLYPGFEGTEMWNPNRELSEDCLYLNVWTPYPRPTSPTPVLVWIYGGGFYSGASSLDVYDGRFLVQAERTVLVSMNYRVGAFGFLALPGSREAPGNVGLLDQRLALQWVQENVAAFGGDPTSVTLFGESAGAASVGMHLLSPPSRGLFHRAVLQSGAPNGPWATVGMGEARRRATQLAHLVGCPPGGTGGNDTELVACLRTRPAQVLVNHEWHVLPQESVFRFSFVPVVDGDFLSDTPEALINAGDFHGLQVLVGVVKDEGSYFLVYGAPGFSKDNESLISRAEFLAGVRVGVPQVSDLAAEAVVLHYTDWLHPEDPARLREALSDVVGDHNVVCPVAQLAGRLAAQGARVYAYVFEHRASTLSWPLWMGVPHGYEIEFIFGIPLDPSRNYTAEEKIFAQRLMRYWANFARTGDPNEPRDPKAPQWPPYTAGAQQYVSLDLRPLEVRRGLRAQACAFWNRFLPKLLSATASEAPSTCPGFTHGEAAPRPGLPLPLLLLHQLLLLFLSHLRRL

For `CNS(=O)(=O)c1cc(C(=O)CCCCNCCc2ccccc2OC(F)(F)F)cc2c1CCC2.Cl`, the melting point lay within 143 to 145 °C.
In turn, `Cl.NS(=O)(=O)c1cc(C(=O)CCCCNCCc2ccccc2OC(F)(F)F)cc2c1CCC2` displayed a melting point of 139 to 141 °C.
Turning to `NS(=O)(=O)c1cc(C(O)CCCCNCCc2ccccc2OC(F)(F)F)cc2c1OCC2.O=C(O)/C=C\C(=O)O` (stereo not shown), the melting point fell in the range of 61 to 63 °C.
In turn, `CS(=O)(=O)Nc1cc(C(=O)CCCCNCCc2ccccc2OC(F)(F)F)cc2c1OCC2.Cl` displayed a melting point of 112 to 114 °C.
Still for that read-out and setting: with `Cl.NS(=O)(=O)c1cc(C(=O)CCCCCNCCc2ccccc2OC(F)(F)F)cc2c1OCC2` the figure was 85 to 87 °C; with `CC(C)NS(=O)(=O)c1cc(C(=O)CCCCNCCc2ccccc2OC(F)(F)F)cc2c1OCC2.Cl`, 173 to 175 °C.
On the same count and under the same terms, with `COc1ccccc1CCNCCCCC(=O)c1cc2c(c(S(N)(=O)=O)c1)CCC2.Cl` the figure was 106 to 108 °C.
In series [1], `COc1ccccc1N1CCN(CCCNc2cc(=O)n(C)c(=O)n2C)CC1` [Urapidil, urapidil, reference compound] gave a negative-log IC50 (pIC50) of 6.33.
As for `Cl.NS(=O)(=O)c1cc(C(=O)CCCCCNCCc2ccccc2Cl)cc2c1OCC2`, the melting point is 107 to 109 °C.
`CC(=O)Nc1cc(C(=O)CCCCNCCc2ccccc2OC(F)(F)F)cc2c1OCC2.Cl` showed a melting point of 120 to 122 °C.
The compound `COc1ccc(C(=O)CCCCNCCc2ccccc2OC(F)(F)F)cc1S(=O)(=O)NC(C)C.Cl` returned a melting point of 156 to 158 °C.
As to `CN(CCCCCCN(C)C(=O)Oc1ccc[n+](C)c1)C(=O)Oc1ccc[n+](C)c1` [Distigmine, distigmine, reference compound], the pIC50 in series [2] was 6.57.
`COc1ccccc1CCNCCCCCC(=O)c1cc2c(c(S(N)(=O)=O)c1)OCC2.Cl` returned a melting point of 92 to 94 °C.
`COc1ccc(C(=O)CCCCNCCc2ccccc2OC(F)(F)F)cc1S(N)(=O)=O.Cl` showed a melting point of 169 to 171 °C.
Take `NS(=O)(=O)c1cc(C(=O)CCCCNCCc2ccccc2OC(F)(F)F)cc2c1OCC2` [Example 6, 5-[5-({2-[2-(Trifluoromethoxy)phenyl]ethyl}amino)-pentanoyl]-2,3-dihydro-1-benzofuran-7-sulfonamide tosylate]: the pIC50 in series [1] was 7.72; in series [2], 7.10.
`CNS(=O)(=O)c1cc(C(=O)CCCCNCCc2ccccc2OC(F)(F)F)cc2c1OCC2.Cl` yielded a melting point of 135 to 137 °C.
Same read-out and setting: with `Cl.NS(=O)(=O)c1cc(C(=O)CCCCNCCc2ccccc2Cl)cc2c1CCC2` the figure was 167 to 169 °C; with `Cl.NS(=O)(=O)c1cc(C(=O)CCCCNCCc2ccccc2OC(F)(F)F)cc2c1OCCO2`, 111 to 113 °C.
